Source: ChEMBL document CHEMBL1667805, “Synthesis of new C5-(1-substituted-1,2,3-triazol-4 or 5-yl)-2'-deoxyuridines and their antiviral evaluation” (Eur J Med Chem, 2011)
Calls of active or inactive are those of the source. No cut-off for these calls is given here.

Experiments:
Human alphaherpesvirus 3 [1] = test: microbe, parasite or virus in culture; details: Human alphaherpesvirus 3, 07-1, HEL
in vitro = details: human, HEL cells
Human alphaherpesvirus 2 = test: microbe, parasite or virus in culture; details: Human alphaherpesvirus 2, strain G, HEL
Human alphaherpesvirus 1 [2] = test: microbe, parasite or virus in culture; details: Human alphaherpesvirus 1, KOS, HEL
Influenza B virus = format: functional, organism-based; details: MDCK
[3] = test system: Human immunodeficiency virus 2; test: Antiviral activity against HIV2 ROD infected in human […] cells assessed as virus-induced CEM giant cell formation after 4 days; format: functional, organism-based; details: ISOLATE ROD
L1210 = test: cells; details: Mus musculus, L1210, 48 h
HeLa = test: cells; details: Homo sapiens, 96 h
[4] = test system: Human immunodeficiency virus 1; test: Antiviral activity against HIV1 3B infected in human […] cells assessed as virus-induced CEM giant cell formation after 4 days; format: functional, organism-based
Influenza A virus [5] = format: functional, organism-based; details: H1N1, MDCK
CCRF-CEM = test: cells; details: Homo sapiens, 72 h
[6] = test system: Mammalian orthoreovirus 1; format: functional, organism-based; details: Vero
[7] = test system: Vesicular stomatitis virus; format: functional, organism-based; details: MDCK
Human alphaherpesvirus 1 [8] = test: microbe, parasite or virus in culture; details: Human alphaherpesvirus 1, KOS, HEL; remark: listed apart in the source
Vaccinia virus = test: microbe, parasite or virus in culture; details: Orthopoxvirus vaccinia, HEL
Punta Toro virus = format: functional, organism-based; details: Vero
Sindbis virus = format: functional, organism-based; details: Vero
Coxsackievirus B4 = format: functional, organism-based; details: HeLa
Human betaherpesvirus 5 [9] = test: microbe, parasite or virus in culture; details: Human betaherpesvirus 5, Davis, HEL
Human betaherpesvirus 5 [10] = test: microbe, parasite or virus in culture; details: Human betaherpesvirus 5, AD169, HEL
[11] = test system: Vesicular stomatitis virus; format: functional, organism-based; details: HeLa
Influenza A virus [12] = format: functional, organism-based; details: H3N2, MDCK
Human respirovirus 3 = format: functional, organism-based; details: Vero
Human alphaherpesvirus 3 [13] = test: microbe, parasite or virus in culture; details: Human alphaherpesvirus 3, strain Oka vaccine, HEL

Row | Compound | EC50 (Human alphaherpesvirus 3 [1]) | CC50 at 72 h (in vitro) | MCC at 72 h (in vitro) | EC50 (Human alphaherpesvirus 2) | EC50 (Human alphaherpesvirus 1 [2]) | inhibition (Influenza B virus) | inhibition [3] | IC50 (L1210) | IC50 (HeLa) | inhibition [4] | inhibition (Influenza A virus [5]) | IC50 (CCRF-CEM) | inhibition [6] | inhibition [7] | EC50 (Human alphaherpesvirus 1 [8]) | EC50 (Vaccinia virus) | inhibition (Punta Toro virus) | inhibition (Sindbis virus) | EC50 (Human betaherpesvirus 5 [9]) | EC50 (Human betaherpesvirus 5 [10]) | also measured
1 | O=c1[nH]c(=O)n([C@H]2C[C@H](O)[C@@H](CO)O2)cc1/C=C/Br [BRIVUDINE] | 54.4 µM | > 250 µM | > 250 µM | 180 µM | 6 µM | – | – | – | – | – | – | – | – | – | – | – | – | – | – | – | –
2 | O=c1[nH]c(=O)n([C@H]2C[C@H](O)[C@@H](CO)O2)cc1-c1cn(-c2ccc(Br)cc2)nn1 | 14 µM | 1 µM | ≥ 44 µM | ≥ 100 µM | 132 µM | inactive | inactive | 4.6 µM | 1.37 µM | inactive | inactive | 1.8 µM | inactive | inactive | 132 µM | 31 µM | inactive | inactive | 25 µM | 45 µM | inhibition (Coxsackievirus B4): inactive; inhibition [11]: inactive; inhibition (Influenza A virus [12]): inactive; inhibition (Human respirovirus 3): inactive; EC50 (Human alphaherpesvirus 3 [13]): 2.6 µM
3 | Nc1ccn(C[C@@H](CO)OCP(=O)(O)O)c(=O)n1 [CIDOFOVIR] | – | > 250 µM | > 250 µM | 1.4 µM | 0.8 µM | – | – | – | – | – | – | – | – | – | 0.8 µM | – | – | – | 0.4 µM | – | –
4 | O=c1[nH]cc(F)c(=O)[nH]1 [FLUOROURACIL] | – | – | – | – | – | – | – | 0.56 µM | 0.57 µM | – | – | 14 µM | – | – | – | – | – | – | – | – | –
5 | O=c1[nH]c(=O)n([C@H]2C[C@H](O)[C@@H](CO)O2)cc1-c1cn(-c2cc(F)cc(F)c2)nn1 | > 50 µM | 36 µM | 220 µM | > 220 µM | > 220 µM | inactive | inactive | – | – | inactive | inactive | – | inactive | inactive | > 220 µM | > 220 µM | inactive | inactive | > 50 µM | > 50 µM | inhibition (Coxsackievirus B4): inactive; inhibition [11]: inactive; inhibition (Influenza A virus [12]): inactive; inhibition (Human respirovirus 3): inactive; EC50 (Human alphaherpesvirus 3 [13]): > 50 µM
6 | CC(C)c1ccc(-n2cc(-c3cn([C@H]4C[C@H](O)[C@@H](CO)O4)c(=O)[nH]c3=O)nn2)cc1 | 97 µM | 7.4 µM | > 240 µM | > 10 µM | > 10 µM | inactive | inactive | 29 µM | 6.2 µM | inactive | inactive | 22 µM | inactive | inactive | > 10 µM | > 10 µM | inactive | inactive | 185 µM | 240 µM | inhibition (Coxsackievirus B4): inactive; inhibition [11]: inactive; inhibition (Influenza A virus [12]): inactive; inhibition (Human respirovirus 3): inactive; EC50 (Human alphaherpesvirus 3 [13]): 20 µM
7 | Nc1nc2c(ncn2COC(CO)CO)c(=O)[nH]1 [GANCICLOVIR] | – | > 250 µM | > 250 µM | 0.04 µM | 0.1 µM | – | – | – | – | – | – | – | – | – | – | > 100 µM | – | – | – | – | –
8 | NC(=O)c1ncn([C@@H]2O[C@H](CO)[C@@H](O)[C@H]2O)n1 [RIBAVIRIN] | – | > 250 µM | > 250 µM | > 250 µM | > 250 µM | – | – | – | – | – | – | – | – | – | > 250 µM | > 250 µM | – | – | > 100 µM | > 100 µM | –
9 | CC(C)(C)c1ccc(-n2cc(-c3cn([C@H]4C[C@H](O)[C@@H](CO)O4)c(=O)[nH]c3=O)nn2)cc1 | 35 µM | 12.4 µM | 230 µM | > 50 µM | > 50 µM | inactive | inactive | 15 µM | 9 µM | inactive | inactive | 11 µM | inactive | inactive | > 50 µM | 37 µM | inactive | inactive | > 50 µM | > 50 µM | inhibition (Coxsackievirus B4): inactive; inhibition [11]: inactive; inhibition (Influenza A virus [12]): inactive; inhibition (Human respirovirus 3): inactive; EC50 (Human alphaherpesvirus 3 [13]): 7.7 µM
10 | O=c1[nH]c(=O)n([C@H]2C[C@H](O)[C@@H](CO)O2)cc1-c1cn(-c2ccc(OC(F)(F)F)cc2)nn1 | > 50 µM | 47 µM | > 220 µM | > 50 µM | > 50 µM | inactive | inactive | 50 µM | 37 µM | inactive | inactive | 35 µM | inactive | inactive | > 50 µM | > 50 µM | inactive | inactive | > 220 µM | > 220 µM | inhibition (Coxsackievirus B4): inactive; inhibition [11]: inactive; inhibition (Influenza A virus [12]): inactive; inhibition (Human respirovirus 3): inactive; EC50 (Human alphaherpesvirus 3 [13]): > 50 µM
11 | Nc1nc2c(ncn2COCCO)c(=O)[nH]1 [ACYCLOVIR] | 16.5 µM | > 130 µM | > 50 µM | – | 10 µM | – | – | – | – | – | – | – | – | – | – | > 250 µM | – | – | – | – | –
12 | CC(C)c1ccc(-n2nncc2-c2cn([C@H]3C[C@H](O)[C@@H](CO)O3)c(=O)[nH]c2=O)cc1 | – | – | > 100 µM | > 100 µM | > 100 µM | – | – | > 200 µM | > 200 µM | – | – | > 200 µM | – | – | > 100 µM | > 100 µM | – | – | – | – | –
13 | O=c1[nH]c(=O)n([C@H]2C[C@H](O)[C@@H](CO)O2)cc1-c1cnnn1-c1c(F)cccc1F | – | – | > 100 µM | > 100 µM | > 100 µM | – | – | 10 µM | 5 µM | – | – | 12 µM | – | – | > 100 µM | > 100 µM | – | – | – | – | –
14 | O=c1[nH]c(=O)n([C@H]2C[C@H](O)[C@@H](CO)O2)cc1-c1cnnn1-c1ccc(Br)cc1 | – | – | > 100 µM | > 100 µM | > 100 µM | – | – | 61 µM | 8 µM | – | – | 47 µM | – | – | > 100 µM | > 100 µM | – | – | – | – | –
15 | O=c1[nH]c(=O)n([C@H]2C[C@H](O)[C@@H](CO)O2)cc1-c1cnnn1-c1ccc(Oc2ccccc2)cc1 | – | – | > 100 µM | > 100 µM | > 100 µM | – | – | 134 µM | 42 µM | – | – | 107 µM | – | – | > 100 µM | > 100 µM | – | – | – | – | –
